The source of these data is ChEMBL document CHEMBL5046241, “The novel therapeutic strategy of vilazodone-donepezil chimeras as potent triple-target ligands for the potential treatment of Alzheimer's disease with comorbid depression” (Eur J Med Chem, 2022).

Data set [1] has as its target 5-hydroxytryptamine receptor 1B (Homo sapiens, UniProt P28222).
Description: Agonist activity at 5-HT1B receptor (unknown origin)
Data set [2] addresses T1, Acetylcholinesterase (Mus musculus, UniProt P21836).
T1 sequence (P21836 whole entry): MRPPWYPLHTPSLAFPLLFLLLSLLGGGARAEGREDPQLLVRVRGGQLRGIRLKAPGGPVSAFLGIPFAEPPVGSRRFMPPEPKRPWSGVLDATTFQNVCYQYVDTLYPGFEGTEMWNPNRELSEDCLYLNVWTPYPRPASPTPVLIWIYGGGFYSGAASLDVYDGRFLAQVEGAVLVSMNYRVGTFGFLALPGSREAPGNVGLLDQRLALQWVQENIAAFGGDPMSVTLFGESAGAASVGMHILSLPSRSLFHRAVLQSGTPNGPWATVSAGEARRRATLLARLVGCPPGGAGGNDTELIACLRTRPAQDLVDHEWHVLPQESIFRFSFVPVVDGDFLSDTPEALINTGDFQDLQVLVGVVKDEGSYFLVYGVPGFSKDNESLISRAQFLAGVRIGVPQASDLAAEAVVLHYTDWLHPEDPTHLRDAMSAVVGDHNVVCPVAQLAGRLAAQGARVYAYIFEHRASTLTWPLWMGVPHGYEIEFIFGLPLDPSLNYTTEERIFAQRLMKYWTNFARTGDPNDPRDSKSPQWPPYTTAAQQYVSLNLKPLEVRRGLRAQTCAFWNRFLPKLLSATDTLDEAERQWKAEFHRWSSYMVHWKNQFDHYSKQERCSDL
In words: biochemical.
Description: Inhibition of AChE in mouse cortical homogenate using acetylthiocholine iodide as substrate incubated for 20 mins by Ellman's method

The target in data set [3] is T2, 5-hydroxytryptamine receptor 1A (Homo sapiens, UniProt P08908).
T2 sequence (P08908 whole entry): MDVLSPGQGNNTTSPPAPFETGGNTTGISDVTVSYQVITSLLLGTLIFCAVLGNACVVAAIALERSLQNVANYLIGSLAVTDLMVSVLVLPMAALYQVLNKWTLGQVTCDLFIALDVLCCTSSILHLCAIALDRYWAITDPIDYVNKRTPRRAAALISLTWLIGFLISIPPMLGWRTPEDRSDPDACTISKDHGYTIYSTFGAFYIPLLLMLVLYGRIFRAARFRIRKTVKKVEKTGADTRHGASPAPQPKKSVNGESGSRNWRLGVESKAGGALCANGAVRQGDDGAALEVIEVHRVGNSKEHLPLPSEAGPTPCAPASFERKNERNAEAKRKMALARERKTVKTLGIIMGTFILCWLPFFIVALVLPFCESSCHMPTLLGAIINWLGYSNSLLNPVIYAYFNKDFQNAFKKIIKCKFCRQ
Description: Agonist activity at human 5-HT1A receptor expressed in HEK293 cells incubated for 60 mins by Eu-cAMP tracer based LANCE ultra cAMP assay

In data set [4] the target is Cholinesterase (Mus musculus, UniProt Q03311).
Sequence of Cholinesterase (Q03311 whole entry): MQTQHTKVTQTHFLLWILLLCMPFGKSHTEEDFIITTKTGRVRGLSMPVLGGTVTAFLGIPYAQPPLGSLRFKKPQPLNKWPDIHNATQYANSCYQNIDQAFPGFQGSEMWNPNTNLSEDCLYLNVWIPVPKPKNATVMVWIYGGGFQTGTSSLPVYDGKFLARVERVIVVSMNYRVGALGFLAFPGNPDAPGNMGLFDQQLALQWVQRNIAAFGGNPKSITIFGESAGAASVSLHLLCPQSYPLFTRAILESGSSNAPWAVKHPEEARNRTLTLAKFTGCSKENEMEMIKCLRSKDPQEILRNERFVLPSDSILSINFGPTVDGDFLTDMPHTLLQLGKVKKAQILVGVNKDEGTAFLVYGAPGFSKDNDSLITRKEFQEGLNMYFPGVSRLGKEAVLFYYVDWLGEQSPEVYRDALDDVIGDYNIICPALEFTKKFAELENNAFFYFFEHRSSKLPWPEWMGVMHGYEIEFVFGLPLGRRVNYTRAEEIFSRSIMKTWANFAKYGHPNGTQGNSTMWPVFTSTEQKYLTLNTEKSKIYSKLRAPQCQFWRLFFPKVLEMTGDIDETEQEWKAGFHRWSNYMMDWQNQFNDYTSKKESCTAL
Description: Inhibition of BuChE in mouse serum using butyrylthiocholine iodide as substrate incubated for 20 mins by Ellman's method
Data set [5] is described as follows: in vitro. The conditions noted are these: PAMPA. On the technique in general: PAMPA measures passive passage across an artificial lipid membrane.
Description: Permeability of compound by PAMPA-BBB assay
Data set [6] has as its target Sodium-dependent serotonin transporter (Homo sapiens, UniProt P31645). It counts as cell-based, HEK293.
The target of data set [7] is T1, Acetylcholinesterase. In words: Inhibition of mouse AChE assessed as inhibition constant using acetylthiocholine iodide as substrate measured every 2 mins by lineweaver-burk plot analysis.
The target in data set [8] is Voltage-gated inwardly rectifying potassium channel KCNH2 (Homo sapiens, UniProt Q12809).
Sequence of Voltage-gated inwardly rectifying potassium channel KCNH2 (Q12809 whole entry): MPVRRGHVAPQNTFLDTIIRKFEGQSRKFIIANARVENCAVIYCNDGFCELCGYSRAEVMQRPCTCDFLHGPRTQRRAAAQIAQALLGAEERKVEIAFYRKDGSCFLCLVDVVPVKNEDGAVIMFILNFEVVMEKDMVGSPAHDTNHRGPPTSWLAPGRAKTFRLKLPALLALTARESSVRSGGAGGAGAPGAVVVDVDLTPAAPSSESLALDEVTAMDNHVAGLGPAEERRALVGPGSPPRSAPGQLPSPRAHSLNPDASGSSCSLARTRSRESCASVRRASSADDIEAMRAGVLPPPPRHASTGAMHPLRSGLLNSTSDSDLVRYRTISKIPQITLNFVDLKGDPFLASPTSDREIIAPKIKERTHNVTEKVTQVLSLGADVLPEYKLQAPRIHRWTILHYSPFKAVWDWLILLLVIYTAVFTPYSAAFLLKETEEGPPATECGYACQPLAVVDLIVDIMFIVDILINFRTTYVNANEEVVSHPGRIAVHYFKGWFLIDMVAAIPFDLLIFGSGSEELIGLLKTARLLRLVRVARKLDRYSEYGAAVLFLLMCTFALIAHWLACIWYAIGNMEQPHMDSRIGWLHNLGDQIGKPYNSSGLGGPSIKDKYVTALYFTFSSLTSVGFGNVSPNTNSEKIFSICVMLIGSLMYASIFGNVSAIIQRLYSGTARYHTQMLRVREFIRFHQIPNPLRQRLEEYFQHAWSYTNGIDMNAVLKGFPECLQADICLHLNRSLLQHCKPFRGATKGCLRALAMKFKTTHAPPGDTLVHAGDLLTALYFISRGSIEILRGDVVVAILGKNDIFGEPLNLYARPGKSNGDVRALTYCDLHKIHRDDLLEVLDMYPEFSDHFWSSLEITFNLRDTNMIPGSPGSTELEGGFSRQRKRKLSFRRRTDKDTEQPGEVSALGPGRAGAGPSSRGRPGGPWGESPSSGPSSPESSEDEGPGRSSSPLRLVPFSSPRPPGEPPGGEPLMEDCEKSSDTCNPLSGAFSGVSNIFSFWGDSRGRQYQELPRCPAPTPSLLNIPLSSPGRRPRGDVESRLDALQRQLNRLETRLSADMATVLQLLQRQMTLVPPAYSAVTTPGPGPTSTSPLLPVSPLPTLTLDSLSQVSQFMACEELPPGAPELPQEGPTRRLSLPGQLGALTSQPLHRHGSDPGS
Description: Inhibition of hERG expressed in CHO cells at -80 mV holding potential by automated patch clamp method
For data set [9], the target named is Sodium-dependent dopamine transporter (Homo sapiens, UniProt Q01959).
Sequence of Sodium-dependent dopamine transporter (Q01959 whole entry): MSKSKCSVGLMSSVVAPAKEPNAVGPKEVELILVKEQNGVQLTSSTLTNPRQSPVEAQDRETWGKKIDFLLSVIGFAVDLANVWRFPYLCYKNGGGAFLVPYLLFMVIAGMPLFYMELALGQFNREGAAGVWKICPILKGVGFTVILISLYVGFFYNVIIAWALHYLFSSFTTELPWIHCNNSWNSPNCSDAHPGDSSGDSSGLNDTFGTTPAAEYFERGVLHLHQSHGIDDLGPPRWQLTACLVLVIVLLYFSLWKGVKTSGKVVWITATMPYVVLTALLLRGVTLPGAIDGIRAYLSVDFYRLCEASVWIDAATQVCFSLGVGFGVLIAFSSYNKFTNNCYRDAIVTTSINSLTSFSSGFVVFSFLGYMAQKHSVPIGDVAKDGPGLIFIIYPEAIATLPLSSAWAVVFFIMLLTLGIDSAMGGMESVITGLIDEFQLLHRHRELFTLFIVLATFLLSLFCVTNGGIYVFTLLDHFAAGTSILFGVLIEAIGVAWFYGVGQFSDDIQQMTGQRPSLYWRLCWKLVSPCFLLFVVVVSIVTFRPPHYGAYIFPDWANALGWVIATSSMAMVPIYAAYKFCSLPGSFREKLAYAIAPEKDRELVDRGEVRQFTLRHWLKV
Description: Inhibition of dopamine transporter (unknown origin)
The target in data set [10] is Acetylcholinesterase (Homo sapiens, UniProt P22303). In words: Inhibition of […] using acetylthiocholine iodide as substrate incubated for 20 mins by Ellman's method. More on the design: species or system Erythrocyte. (In general: DTNB colorimetry detects thiols as they appear.)
Sequence of Acetylcholinesterase (Homo sapiens, UniProt P22303) (P22303 whole entry): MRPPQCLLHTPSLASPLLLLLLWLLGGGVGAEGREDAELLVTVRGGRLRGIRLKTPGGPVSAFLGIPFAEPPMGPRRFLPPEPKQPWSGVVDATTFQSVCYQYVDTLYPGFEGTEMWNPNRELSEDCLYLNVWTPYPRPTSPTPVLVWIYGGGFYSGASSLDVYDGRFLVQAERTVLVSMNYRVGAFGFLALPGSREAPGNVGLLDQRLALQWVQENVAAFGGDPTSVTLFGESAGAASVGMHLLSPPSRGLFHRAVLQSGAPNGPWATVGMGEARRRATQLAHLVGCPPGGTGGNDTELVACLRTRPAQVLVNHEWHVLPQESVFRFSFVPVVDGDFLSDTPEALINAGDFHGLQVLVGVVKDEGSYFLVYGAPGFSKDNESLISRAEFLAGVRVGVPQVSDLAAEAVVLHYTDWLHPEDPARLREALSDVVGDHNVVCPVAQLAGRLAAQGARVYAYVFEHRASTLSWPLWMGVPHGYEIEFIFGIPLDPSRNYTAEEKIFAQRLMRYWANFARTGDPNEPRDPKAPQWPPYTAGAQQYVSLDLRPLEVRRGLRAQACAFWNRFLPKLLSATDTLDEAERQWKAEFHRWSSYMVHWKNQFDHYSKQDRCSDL
Data set [11] can be described thus: in vitro. The conditions noted are these: CD-1, mouse, microsomes.
The nature of data set [12]: in vitro. The conditions noted are these: CD-1, mouse, microsomes. The source holds these as a separate data set.
A short description of data set [13]: in vitro. The conditions noted are these: Sprague-Dawley, rat, microsomes.
A short description of data set [14]: in vitro. The conditions noted are these: Sprague-Dawley, rat, microsomes. This is another data set of the same source.
In data set [15] the target is Sodium-dependent noradrenaline transporter (Homo sapiens, UniProt P23975).
Sequence of Sodium-dependent noradrenaline transporter (P23975 whole entry): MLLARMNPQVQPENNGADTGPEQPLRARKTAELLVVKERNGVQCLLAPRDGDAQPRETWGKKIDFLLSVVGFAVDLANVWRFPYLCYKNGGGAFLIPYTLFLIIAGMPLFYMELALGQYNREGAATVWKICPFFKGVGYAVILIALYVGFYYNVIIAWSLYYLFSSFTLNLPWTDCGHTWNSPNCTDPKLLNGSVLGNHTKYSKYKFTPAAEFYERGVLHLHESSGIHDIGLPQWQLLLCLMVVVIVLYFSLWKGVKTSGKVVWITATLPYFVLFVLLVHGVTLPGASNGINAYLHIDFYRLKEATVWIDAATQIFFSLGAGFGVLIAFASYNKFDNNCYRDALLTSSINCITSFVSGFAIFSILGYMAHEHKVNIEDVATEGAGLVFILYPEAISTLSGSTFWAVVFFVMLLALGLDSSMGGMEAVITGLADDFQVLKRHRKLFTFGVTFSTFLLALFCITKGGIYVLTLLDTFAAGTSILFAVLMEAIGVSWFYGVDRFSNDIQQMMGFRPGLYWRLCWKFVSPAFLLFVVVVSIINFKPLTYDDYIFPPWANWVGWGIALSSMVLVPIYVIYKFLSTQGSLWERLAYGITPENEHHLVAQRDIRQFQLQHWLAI
Description: Inhibition of norepinephrine transporter (unknown origin)

Sequence of Sodium-dependent serotonin transporter (P31645 whole entry): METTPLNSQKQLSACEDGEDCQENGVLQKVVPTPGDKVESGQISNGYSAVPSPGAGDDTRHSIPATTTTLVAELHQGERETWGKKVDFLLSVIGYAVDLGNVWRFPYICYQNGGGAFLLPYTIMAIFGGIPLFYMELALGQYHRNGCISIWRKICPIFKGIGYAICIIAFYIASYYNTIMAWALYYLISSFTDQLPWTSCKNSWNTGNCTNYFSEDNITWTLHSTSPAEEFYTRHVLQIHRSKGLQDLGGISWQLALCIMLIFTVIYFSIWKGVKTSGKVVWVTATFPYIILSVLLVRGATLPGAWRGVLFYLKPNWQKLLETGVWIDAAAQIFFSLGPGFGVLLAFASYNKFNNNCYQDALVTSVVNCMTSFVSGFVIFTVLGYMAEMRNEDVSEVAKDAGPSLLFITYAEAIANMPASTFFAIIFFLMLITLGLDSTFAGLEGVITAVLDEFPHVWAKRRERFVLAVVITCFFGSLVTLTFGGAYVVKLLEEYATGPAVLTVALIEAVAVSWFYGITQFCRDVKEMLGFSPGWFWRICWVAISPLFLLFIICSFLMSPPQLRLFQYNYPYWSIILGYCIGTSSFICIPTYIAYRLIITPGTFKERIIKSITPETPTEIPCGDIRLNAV
Sequence of 5-hydroxytryptamine receptor 1B (P28222 whole entry): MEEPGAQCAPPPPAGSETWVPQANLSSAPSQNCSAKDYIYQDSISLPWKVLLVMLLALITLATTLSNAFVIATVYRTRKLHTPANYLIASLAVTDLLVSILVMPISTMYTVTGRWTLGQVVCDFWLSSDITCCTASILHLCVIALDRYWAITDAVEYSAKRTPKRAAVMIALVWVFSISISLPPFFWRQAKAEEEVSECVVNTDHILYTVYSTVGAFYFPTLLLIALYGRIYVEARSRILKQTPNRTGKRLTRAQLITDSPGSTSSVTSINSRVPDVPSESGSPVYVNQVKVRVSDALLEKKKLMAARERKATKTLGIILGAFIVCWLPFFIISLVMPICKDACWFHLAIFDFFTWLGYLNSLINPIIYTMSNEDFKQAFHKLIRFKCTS

Compound `CN1CCC[C@@H]1Cc1c[nH]c2ccc(CCS(=O)(=O)c3ccccc3)cc12` showed an EC50 in data set [1] of 11.6 nM. This counts as double-digit nanomolar.

As for `N#Cc1ccc2[nH]cc(CCN3CCN(c4ccc(C(=O)CCC5CCN(Cc6cccnc6)CC5)cc4)CC3)c2c1`, the IC50 in data set [2] came to 7.7 nM; in data set [4], 6750 nM. In data set [3], this compound gave an EC50 of 547 nM. The compound further displayed a Papp in [5] of 2.58 ×10⁻⁶ cm/s.

Consider `N#Cc1ccc2[nH]cc(CN3CCN(c4ccc(C(=O)CCC5CCN(Cc6cccnc6)CC5)cc4)CC3)c2c1`, for which the IC50 in data set [2] is 9.97 nM; in data set [4] it was 5850 nM. In data set [3], this compound registered an EC50 of over 1000 nM. For the same compound, the Papp in data set [5] was 2.86 ×10⁻⁶ cm/s.

`N#Cc1ccc2[nH]cc(CCN3CCN(c4ccc(C(=O)CCC5CCN(Cc6cc[nH]c6)CC5)cc4)CC3)c2c1`: the values for the IC50 in data set [2], in data set [4] and in data set [6] were 3.54 nM, 3570 nM and 8.41 nM, respectively. Also, the EC50 in data set [3] is over 1000 nM. The compound also registered a Papp in [5] of 3.15 ×10⁻⁶ cm/s.

In the case of `N#Cc1ccc2[nH]cc(CCN3CCN(c4ccc5c(c4)CC(CC4CCN(Cc6ccccc6)CC4)C5=O)CC3)c2c1` (configuration not stated), the IC50 stood at 8.7 nM in [2], 638 nM in data set [4] and 8.81 nM in data set [6]. The compound also displayed an EC50 in data set [3] of over 1000 nM. Moreover, the Papp in [5] stood at 4.16 ×10⁻⁶ cm/s.

Turning to `N#Cc1ccc2[nH]cc(CCCCN3CCN(c4ccc(C(=O)CCC5CCN(Cc6ccoc6)CC5)cc4)CC3)c2c1`, the IC50 in data set [2] came to 8.95 nM; in data set [4] it was 2730 nM; in data set [6], 35.7 nM. This compound gave a half-maximal effective concentration (EC50) in [3] of 19 nM. Also, the Papp in data set [5] is 4.68 ×10⁻⁶ cm/s.

As for `N#Cc1ccc2[nH]cc(CN3CCN(c4ccc(C(=O)CCC5CCN(Cc6ccoc6)CC5)cc4)CC3)c2c1`, the 50% inhibitory concentration (IC50) is 10.6 nM in data set [2] and 1400 nM in data set [4]. Further, in [3], the EC50 is over 1000 nM. The same compound gave a Papp in data set [5] of 5.56 ×10⁻⁶ cm/s.

In the case of `N#Cc1ccc2[nH]cc(CN3CCN(c4ccc5c(c4)CC(CC4CCN(Cc6ccccc6)CC4)C5=O)CC3)c2c1` (configuration not stated), the IC50 came to 6.68 nM in data set [2], 498 nM in data set [4] and 15.9 nM in data set [6]. The EC50 in data set [3] is over 1000 nM. In data set [5], this compound returned a Papp of 3.61 ×10⁻⁶ cm/s.

For the compound `N#Cc1ccc2[nH]cc(CCCCN3CCN(c4ccc(C(=O)CCC5CCN(Cc6cc[nH]c6)CC5)cc4)CC3)c2c1`, the 50% inhibitory concentration (IC50) is 3.94 nM in data set [2], 2000 nM in data set [4] and 8.25 nM in data set [6]. This compound also came in with an EC50 in data set [3] of 22.2 nM. Also, the Papp in data set [5] is 4.77 ×10⁻⁶ cm/s.

Consider `N#Cc1ccc2[nH]cc(CCCCN3CCN(c4ccc(C(=O)CCC5CCN(Cc6ccccc6)CC5)cc4)CC3)c2c1`, for which the inhibition constant Ki in data set [7] stood at 1.16 nM. For the same compound, the IC50 was over 40000 nM in [8]; 1040 nM in data set [9]; 0.58 nM in [10]; 2.29 nM in data set [2]; 2180 nM in [4]; 29.2 nM in data set [6]. Also, the EC50 in data set [3] is 58.6 nM; in data set [1] it was over 30000 nM.

For the compound `N#Cc1ccc2[nH]cc(CCCN3CCN(c4ccc(C(=O)CCC5CCN(Cc6ccccc6)CC5)cc4)CC3)c2c1`, the IC50 in data set [2] stood at 2.18 nM; in [4] it was 1490 nM; in data set [6], 39.9 nM. This compound returned an EC50 in [3] of 65.5 nM. The compound further registered a Papp in data set [5] of 4.38 ×10⁻⁶ cm/s.

Take `N#Cc1ccc2[nH]cc(CN3CCN(c4ccc(C(=O)CCC5CCN(Cc6ccsc6)CC5)cc4)CC3)c2c1`: the IC50 in data set [2] is 2.35 nM; in [4], 902 nM; in data set [6] it was 75.2 nM. In addition, the EC50 in data set [3] was over 1000 nM. For the same compound, the apparent permeability (Papp) in data set [5] was 5.25 ×10⁻⁶ cm/s.

With `N#Cc1ccc2[nH]cc(CCN3CCN(c4ccc(C(=O)CCC5CCN(Cc6ccsc6)CC5)cc4)CC3)c2c1`, the IC50 in data set [2] was 2.56 nM; in [4], 1860 nM; in data set [6], 33.5 nM. Besides, the EC50 in [3] was over 1000 nM. The same compound registered a Papp in data set [5] of 4.77 ×10⁻⁶ cm/s.

`N#Cc1ccc2[nH]cc(CN3CCN(c4ccc(C(=O)CCC5CCN(Cc6ccccc6)CC5)cc4)CC3)c2c1`: the IC50 stood at 6.43 nM in [2], 979 nM in data set [4] and 54.5 nM in [6]. The concentration giving a half-maximal response (EC50) in data set [3] was over 1000 nM. In addition, the Papp in data set [5] is 3.67 ×10⁻⁶ cm/s.

Take `Cc1ccc2[nH]cc(CCCCN3CCN(c4ccc(C(=O)CCC5CCN(Cc6ccccc6)CC5)cc4)CC3)c2c1`: the IC50 in data set [2] was 2.28 nM; in data set [4], 1200 nM; in data set [6], over 1000 nM. The compound further returned an EC50 in data set [3] of 279 nM. For the same compound, the Papp in data set [5] is 2.5 ×10⁻⁶ cm/s.

On to `N#Cc1ccc2[nH]cc(CCCCN3CCN(c4ccc(C(=O)CCC5CCN(Cc6ccsc6)CC5)cc4)CC3)c2c1`, for which the IC50 in [2] came to 3.01 nM; in data set [4], 883 nM; in data set [6] it was 20.1 nM. For the same compound, the EC50 in [3] is 66.6 nM. The compound further came in with a Papp in [5] of 4.62 ×10⁻⁶ cm/s.

Regarding `N#Cc1ccc2[nH]cc(CN3CCN(c4ccc(C(=O)CCC5CCN(Cc6cc[nH]c6)CC5)cc4)CC3)c2c1`, the IC50 in data set [2] worked out at 3.42 nM; in data set [4], 1150 nM; in data set [6], 12.1 nM. Further, the EC50 in data set [3] is over 1000 nM. Besides, in [5], the Papp came to 3.17 ×10⁻⁶ cm/s.

Consider `N#Cc1ccc2[nH]cc(CCCCN3CCN(c4ccc(C(=O)CCC5CCN(Cc6cccnc6)CC5)cc4)CC3)c2c1`, for which the 50% inhibitory concentration (IC50) worked out at 7.98 nM in data set [2], 4590 nM in [4] and 16.2 nM in [6]. Besides, the EC50 in data set [3] was found to be 22 nM. Moreover, in data set [5], the apparent permeability coefficient (Papp) was 4.43 ×10⁻⁶ cm/s.

Take `N#Cc1ccc2[nH]cc(CCCN3CCN(c4ccc5c(c4)CC(CC4CCN(Cc6ccccc6)CC4)C5=O)CC3)c2c1` (configuration not stated): the values for the IC50 in data set [2], in data set [4] and in data set [6] were 4.38 nM, 551 nM and 18.4 nM, respectively. Further, the EC50 in data set [3] was 316 nM. In data set [5], this compound displayed an apparent permeability coefficient (Papp) of 3.55 ×10⁻⁶ cm/s.

Take `N#Cc1ccc2[nH]cc(CCCN3CCN(c4ccc(C(=O)CCC5CCN(Cc6ccoc6)CC5)cc4)CC3)c2c1`: the IC50 in data set [2] came out at 9.61 nM; in data set [4] it was 1340 nM. Moreover, in data set [3], a half-maximal effect (EC50) was put at 29 nM. Also, in [5], the Papp was 5.17 ×10⁻⁶ cm/s.

As to `COc1cc2c(cc1OC)C(=O)C(CC1CCN(Cc3ccccc3)CC1)C2` (configuration not stated) [DONEPEZIL], the microsomal CLint at […] is 34.8 µL/min/mg in data set [11] and under 9.6 µL/min/mg in data set [13]. In addition, the half-life at […] is 46 min in data set [12] and over 145 min in [14].

In the case of `C[C@]12CC[C@H]3[C@@H](CCC4=CC(=O)CC[C@@]43C)[C@@H]1CC[C@@H]2O` [TESTOSTERONE], the microsomal CLint at […] is 189 µL/min/mg in data set [11] and 597 µL/min/mg in data set [13].

Turning to `N#Cc1ccc2[nH]cc(CCCCN3CCN(c4ccc5oc(C(N)=O)cc5c4)CC3)c2c1` [VILAZODONE], the microsomal CLint at […] turned out to be 30.1 µL/min/mg in [11] and 31.6 µL/min/mg in [13]. Besides, the IC50 stood at 158 nM in data set [15], 5550 nM in [8], 295 nM in data set [9] and 21300 nM in [2]. Moreover, the half-life at […] in data set [12] was 39.8 min; in data set [14] it was 43.8 min. In addition, the Papp in [5] is 10.8 ×10⁻⁶ cm/s. In [1], the 50% effective concentration (EC50) is over 30000 nM.

A word on the EC50: it is the concentration that produces a half-maximal response. A word on the IC50: it is the concentration needed to halve the response being measured. The term Papp denotes the rate of passage across a membrane or cell layer, normalised by area and donor concentration. A higher Papp goes with fast passage. In general, Ki refers to the equilibrium dissociation constant of an inhibitor or competing ligand from its target. As usually defined, the microsomal CLint is the capacity of the preparation to metabolise the compound, expressed as a volume cleared per time. What is called half-life is the time in which the quantity being followed falls by half. Lower therefore signals fast loss.
